In patent US20250230138A1, “COMPOUNDS HAVING A T-STRUCTURE FORMED BY AT LEAST FOUR CYCLES FOR USE IN THE TREATMENT OF CANCER AND OTHER INDICATIONS” (TheRas, Inc., priority 2022, published 2025):
Read-outs that look alike come from different tables or passages of the source.

Tests used:
[1] = test system: pAKT in BT474 cells; assay: Cell-based pAKT HTRF assay in BT474 cells; conditions: BT474 cells, 4 hr incubation, read-out: pAKT inhibition IC50 in BT474 cells
Outline: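 The HTRF signal (excitation 320 nm, emission 615 nm) came from d2/Eu Cryptate antibodies added to lysates and incubated 4–24 h at room temperature. Those lysates were taken from cells treated for 4 hr with compound, top concentration 3 μM, in 0.25% DMSO.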

[2] = target: Cys242 in human PIK3CA (157-299) (Homo sapiens (Human), UniProt P42336); assay: Covalent modification assay using MALDI-TOF MS; type: biochemical; conditions: 4 h reaction time point
Outline: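 Covalent adduct formation was read by linear-mode MALDI-TOF with sinapinic acid matrix, reported as modified-protein peak height divided by total protein peak heights. Reactions held PIK3CA (157-299) at 1 or 3.33 μM in HEPES/NaCl/MgCl2 buffer, pH 7.3, sampled after 15 min to 4 h at room temperature.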

[3] = 3.33 μM protein target, 1:7.5 protein to compound ratio (compounds 1-852)
[4] = 1 μM protein target, 1:5 protein to compound ratio (compounds 853-1279)

Sequence of Cys242 in human PIK3CA (157-299) (P42336 157-299): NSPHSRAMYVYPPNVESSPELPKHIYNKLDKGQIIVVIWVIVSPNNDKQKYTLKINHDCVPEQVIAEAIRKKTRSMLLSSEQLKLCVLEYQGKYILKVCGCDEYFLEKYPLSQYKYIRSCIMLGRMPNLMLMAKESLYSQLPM

Row | Compound | IC50 ([1]; Compounds 10-999) [nM] | % of modification [2, 3] | IC50 ([1]; Homo sapiens, BT-474, Compounds 10-999) [nM] | IC50 ([1]; Compounds 1000-1279) [nM] | % of modification [2, 4]
1 | C=C(F)C(=O)N1CCn2nc(-c3nc(-c4cnc5c(c4)CN(C)CC5)c4ccsc4c3-c3c(F)cc(F)cc3OC(C)C)nc2C1 [Compound 310] | < 100 | A (percent of modification of PIK3CA protein ≥75%) |  |  | 
2 | C=CC(=O)N1CCn2nc(-c3nc(-c4ccc5c(c4)CCN(C)C5)c4ccsc4c3-c3c(F)cc(F)cc3OC(C)C)cc2[C@H]1C [Compound 507] | < 100 | A (percent of modification of PIK3CA protein ≥75%) |  |  | 
3 | C=CC(=O)N1CCn2nc(-c3nc(-n4cc(C)cn4)c4ccsc4c3-c3ccc(F)cc3OC(C)C)cc2C1 [Compound 317, 1-[2-[7-(4-fluoro-2-isopropoxy-phenyl)-4-(4-methylpyrazol-1-yl)thieno[3,2-c]pyridin-6-yl]-6,7-dihydro-4H-pyrazolo[1,5-a]pyrazin-5-yl]prop-2-en-1-one] |  | A (percent of modification of PIK3CA protein ≥75%) | < 100 |  | 
4 | C=CC(=O)N1Cc2cc(-c3nc(-c4cncc(C#N)c4)c4ccsc4c3-c3c(F)cc(F)cc3OCCOC)nn2C[C@H]1C [Compound 670] | < 100 | A (percent of modification of PIK3CA protein ≥75%) |  |  | 
5 | C=CC(=O)N1Cc2cc(-c3nc(-c4ccc5cn(C)nc5c4)c4ccsc4c3-c3c(F)cc(F)cc3OCCOC)nn2C[C@H]1C [Compound 737] | < 100 | A (percent of modification of PIK3CA protein ≥75%) |  |  | 
6 | C=CC(=O)N1CCn2nc(-c3nc(-c4cnc5c(c4)CN(C)CC5)c4ccsc4c3-c3ccc(F)cc3OC)cc2C1 [Compound 288] | < 100 | A (percent of modification of PIK3CA protein ≥75%) |  |  | 
7 | C=CC(=O)N1CCc2nc(-c3nc(-c4ccc(C(C)(C)O)nc4)c4ccsc4c3-c3c(F)cc(F)cc3OCCOC)sc2C1 [Compound 445] | 100 to 1000 | A (percent of modification of PIK3CA protein ≥75%) |  |  | 
8 | C=CC(=O)N1CCc2ncc(-c3nc(-c4ccn(C)c(=O)c4)c4ccsc4c3-c3c(F)cc(F)cc3OC(C)C)cc2C1 [Compound 336] | < 100 | A (percent of modification of PIK3CA protein ≥75%) |  |  | 
9 | C=CC(=O)N1CCn2nc(-c3nc(-c4cnc5c(c4)CN(CCOC)CC5(F)F)c4ccsc4c3-c3c(F)cc(F)cc3OCCOC)cc2C1C (stereo not shown) [Compound 1242] |  |  |  | < 100 | A (percent of modification of PIK3CA protein ≥75%)
10 | C=CC(=O)NCc1cc(-c2nc(-c3ccc4c(c3)CCNC4)c3ccsc3c2-c2ccc(F)cc2OCCOC)ccc1OC [Compound 74] | 1000 to 3000 | D (percent of modification <25%) |  |  | 
11 | C=CC(=O)N1CC(n2cc(-c3nc(-c4ccc5c(c4)CCNC5)c4ccsc4c3-c3cccc(=O)n3CCOC)cn2)C1 [Compound 170] | 1000 to 3000 | D (percent of modification <25%) |  |  | 
12 | C=CC(=O)N1Cc2cc(-c3nc(-c4ccc5nncn5c4)c4ccsc4c3-c3c(F)cc(F)cc3OCCOC)nn2[C@@H](C)C1 [Compound 693] | < 100 | A (percent of modification of PIK3CA protein ≥75%) |  |  | 
13 | C=CC(=O)N1CCn2nc(-c3nc(-c4ccc5c(c4)CN(CC(F)F)CC5)c4ccsc4c3-c3c(F)cc(F)cc3OCCO)cc2C1C (stereo not shown) [Compound 1249] |  |  |  | < 100 | A (percent of modification of PIK3CA protein ≥75%)
14 | C=CC(=O)N1Cc2cc(-c3nc(-c4cnn(C(C)(C)CO)c4)c4ccsc4c3-c3c(F)cc(F)cc3OCCOC)nn2C[C@H]1C [Compound 738] | < 100 | A (percent of modification of PIK3CA protein ≥75%) |  |  | 
15 | C=CC(=O)N1Cc2cc(-c3nc(N4CCC(N(C)C)CC4)c4ccsc4c3-c3c(F)cc(F)cc3OCCOC)nn2CC1C (stereo not shown) [Compound 857] | < 100 |  |  |  | A (percent of modification of PIK3CA protein ≥75%)
16 | C=CC(=O)N1CCc2nc(-c3nc(-c4ccc5nncn5c4)c4ccsc4c3-c3c(F)cc(F)cc3OCCOC)sc2C1 [Compound 978] | < 100 |  |  |  | A (percent of modification of PIK3CA protein ≥75%)
17 | C=CC(=O)N1CCn2nc(-c3nc(-c4cc5cnn(C)c5cc4F)c4ccsc4c3-c3c(F)cc(F)cc3OCCOC)cc2[C@H]1C [Compound 1164] |  |  |  | < 100 | A (percent of modification of PIK3CA protein ≥75%)
